Experimental findings from patent US20180237362A1, “NOVEL POLYGODIAL ANALOGS FOR THE TREATMENT OF CANCER AND OTHER PROLIFERATIVE DISEASES” (THE BOARD OF REGENTS OF THE UNIVERSITY OF TAXAS SYSTEM, priority 2015, published 2018) are described below.

One data set relates to Cal27-derived tumors. The experiment in a line: Mouse xenograft model, Cal27. Format: in vivo, athymic nude mice. How it is done:
Six-week old female athymic nude mice were used in laminar air-flow cabinet in pathogen-free conditions. They were acclimated for one week prior to the start of the study and kept at controlled temperature and humidity, with food and water. Mice were injected subcutaneously in the flank with 2×10^6 Cal27 cells or HeLa cells in 0.1 mL of sterile PBS. When the tumors reached 100 mm^3 (Cal27) and 150 mm^3 (HeLa), the mice were stratified into 4 groups, […], polygodial, P10, P3 and P27 at the concentrations noted in the figure legends.

Data set [1] deals with cervical cancer cell line HeLa. Put plainly: Cell viability (Cell Titer 96 Aqueous), HeLa. Format: cell-based, human. As to conditions: 48 hours; potency order P10, polygodial, P3. The source says:
Human cancer cell lines were obtained from the American Type Culture Collection (ATCC, Manassas, Va., USA), the European Collection of Cell Culture (ECACC, Salisbury, UK) and the Deutsche Sammlung von Mikroorganismen und Zellkulturen (DSMZ, Braunschweig, Germany). The OSCC cell lines, Cal27 and HSC3 are derived from human primary tongue tumor. Cal27 cells were obtained from the American Type Culture Collection (Rockville, Md.). HSC3 cells were provided by Dr. Brian Schmidt. HeLa cells (cervical cancer cell line) were obtained from ATCC. Cells were cultured in DMEM, containing 10% FBS and 1% penicillin-streptomycin media, at 37° C. in 5% CO2. All cells were authenticated by Genetic DNA Laboratories.
The cytotoxicity of polygodial, P10, P3, and P27 in Cal27, HSC3, and HeLa cells was examined in vitro using a colorimetric assay, Cell Titer 96® Aqueous Non-Radioactive Cell Proliferation Assay. […] GraphPad Prism4 was used to perform statistical analysis.

The next data set has as its system U373 cells. The experiment in a line: Trypan blue viability assay, U373. The class given is cell-based, human. As to conditions: 72 h treatment. The procedure:
FIG. 9. Viability of U373 cells by trypan blue staining. U373 cells were treated for 72 h with 1 or 13 and stained with trypan blue. The experiment was conducted once in triplicate. After having taken pictures, cells were fixed with ice-cold methanol and again stained with trypan blue as internal positive control.
To confirm the results obtained in the videomicroscopy experiments, trypan blue assay was employed to detect necrotic and late apoptotic cells that had lost their plasma membrane integrity (FIG. 9). […] These observations support the results of the MTT assay and provide an explanation for the effectiveness of the C12-Wittig derivatives against cells, which display resistance to apoptosis induction. In contrast, at the concentrations necessary to induce cancer cell death 1 behaves as a toxic fixative compound of little promise as a potential drug.

Data set [2] deals with uterine sarcoma MES-SA cells. Put plainly: MTT antiproliferative assay, MES-SA. Format: cell-based, human. As to conditions: 48 h treatment, relative to DMSO control, read-out: GI50 in vitro values, MES-SA. The procedure: (§1) Human mammary carcinoma MCF-7 (ATCC HTB22) cells were cultured in RPMI supplemented with 10% FBS. The U87 cells (ATCC HTB-14) were cultured in DMEM culture medium, while the A549 cells (DSMZ ACC107) were cultured in RPMI culture medium supplemented with 10% heat-inactivated FBS. The GBM Hs683 (ATCC HTB-138) cells were cultivated in DMEM supplemented with 10% FBS. The human uterine sarcoma MES-SA (ATCC CRL1966) and MES-SA/D×5 cells were cultured in RPMI-1640 medium supplemented with 10% FBS with MES SA/D×5 maintained in the presence of 500 nM Doxorubicin (Sigma). SKMEL-28 cells (ATCC HTB72) and U373 GBM cells (ECACC 08061901) were cultured in RPMI culture medium supplemented with 10% heat-inactivated FBS. Cell culture media were supplemented with 4 mM glutamine (Lonza code BE17-605E), 100 μg/mL gentamicin (Lonza code 17-5182), and penicillin-streptomycin (200 units/ml and 200 μg/ml) (Lonza code 17-602E). The MDA-MB-231 (ATCC HTB-26) epithelial mammary adenocarcinoma cells were cultured in Eagle's minimum essential medium (EMEM; Invitrogen) containing 5% fetal calf serum (FCS, Cambrex), 2 mM L-glutamine (Invitrogen), 0.06% HEPES (Invitrogen) and penicillin (50 IU/ml)/streptomycin (50 µg/ml; Invitrogen) at 37° C. in a humidified atmosphere of 5% CO2 in air. Transformed mouse NPCs were cultured in suspension under neurosphere conditions at 37° C. in a humidified atmosphere of […] and 5% CO2 in DMEM F12 (Invitrogen 11320-074) supplemented with 1×B27 supplement (Invitrogen 17504-044), 5% penicillin-streptomycin (Biochrom 10378-017), 10 ng/ml EGF (R&D systems 236-EG), 10 ng/ml FGF (PeproTech 100-18B).
(§2) Antiproliferative properties of the synthesized compounds were evaluated by the MTT assay. All compounds were dissolved in DMSO at a concentration of either 100 μM or 50 μM prior to cell treatment. The cells were trypsinized and seeded at various cell concentrations depending on the cell type. […]

Data set [3] deals with U87 glioblastoma cell cultures. Put plainly: MTT growth curves, U87. Format: cell-based, human. As to conditions: apoptosis-resistant U87 GBM; concentrations up to 100 μM. How it is done: as §1, §2
For another data set, the system named is HSC3 cells. The experiment in a line: Morphological changes, HSC3. As to conditions: P3 50 μM, 1 hour. Format: cell-based, human. The procedure:
FIGS. 12A-B Morphological changes (20×) in HeLa cells (FIG. 12Aa-d) and HSC3 cells (FIG. 12Ba-d) with no treatment (a) or treated with Polygodial 80 μM (b), P10 4 μM (c), and P3 50 μM (d) for 1 hour. Differences in morphological changes between treatments indicate potentially unique mechanisms-of-action between polygodial and P10 (isomer), and P3 (novel analog).

Structures are written as SMILES.

For the molecule `CC1(C)CCC[C@]2(C)[C@@H](C=O)C(C=O)=CC[C@@H]12` [Compound 1, Polygodial], the “anti-tumor effect, Cal27-derived tumors” value in the data set with Cal27-derived tumors (40 μg/100 μl intra-tumor injection every other day for 18 days, no significant difference between polygodial and P27) is listed as “significant anti-tumor effects”. Moreover, the “inflammatory response, Cal27 xenograft mice” value with Cal27-derived tumors (days 2-4, intra-tumor injection) was “notable inflammatory response”. For the same molecule, the “cancer cell viability, HeLa” value in data set [1] is “reduced cancer cell viability in vitro”. Moreover, the “viability by trypan blue staining” value in the data set on U373 cells is “all blue-stained before methanol fixation”.

The term GI50 denotes the concentration at which growth is held to half of that of the control. As to `COC(=O)/C=C/C1=CC[C@H]2C(C)(C)CCC[C@]2(C)[C@H]1C=O` [Compound 5], the GI50 in data set [2] worked out at 40 µM. Moreover, in data set [1], the “cancer cell viability, HeLa” value is recorded as “reduced cancer cell viability in vitro”. The “effect on proliferation/viability of all cells, U87” value in data set [3] is on record as “growth inhibitory properties against most of the cells”. Moreover, the “morphological changes, HSC3” value with HSC3 cells is “apoptotic figures”.
